Assay results: patent US8017614B2, “Arylindenopyrimidines compound and use as an adenosine A2a receptor antagonists” (priority 2007, dated 2011)

Legend:
[1] = target: T1, human adenosine A2a receptors (Homo sapiens, UniProt P29274); experiment: Adenosine A2a receptor functional assay (cAMP-inducible beta-galactosidase reporter, antagonist mode vs NECA); settings: CHO-K1 cells overexpressing human adenosine A2a receptors; 50 nM NECA; read-out: A2a cell-based functional Ki
T1 construct: expressed in transfected cells; host or cells: CHO-K1
T1 sequence (P29274 whole entry): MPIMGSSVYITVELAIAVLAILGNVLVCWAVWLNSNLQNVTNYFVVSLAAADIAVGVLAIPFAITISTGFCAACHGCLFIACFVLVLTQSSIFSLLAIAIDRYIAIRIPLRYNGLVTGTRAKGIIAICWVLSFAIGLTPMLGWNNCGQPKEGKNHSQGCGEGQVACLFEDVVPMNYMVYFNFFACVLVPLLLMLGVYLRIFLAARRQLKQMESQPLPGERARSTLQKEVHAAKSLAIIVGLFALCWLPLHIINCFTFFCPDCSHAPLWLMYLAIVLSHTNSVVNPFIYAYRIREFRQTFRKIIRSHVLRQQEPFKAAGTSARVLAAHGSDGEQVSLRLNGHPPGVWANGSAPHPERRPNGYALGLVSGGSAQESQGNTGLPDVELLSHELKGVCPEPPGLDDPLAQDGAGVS
Description: Ligand binding assay of adenosine A2a receptor was performed using plasma membrane of HEK293 cells containing human A2a adenosine receptor (PerkinElmer, RB-HA2a) and radioligand [3H] CGS21680 (PerkinElmer, NET1021). Assay was set up in 96-well polypropylene plate in total volume of 200, uL by sequentially adding 20 pL1:20 diluted membrane, pLassay buffer (50 mM Tris HCl, pH7.4 10 mM MgCl2, 1 mM EDTA) containing [3H] CGS2168O, 50, uL diluted compound (4×) or vehicle control in assay buffer. Nonspecific binding was determined by […] NECA. Reaction was carried out at room temperature for 2 hours before filtering through 96 well GF/C filter plate pre-soaked in 50 mM Tris HCl, pH7.4 containing 0.3% polyethylenimine. Plates were then washed 5 times with cold 50 mM Tris HCl, pH7.4, dried and sealed at the bottom. Microscintillation fluid 30, ul was added to each well and the top sealed. Plates were counted on Packard Topcount for [3H]. Data was analyzed in Microsoft Excel and GraphPad Prism programs. […] Plates were counted at 405 nm on Vmax Machine (Molecular Devices). Data was analyzed in Microsoft Excel and GraphPad Prism programs. […]

A1 = target: T2, A1 (Homo sapiens, UniProt P30542); experiment: A1 cell-based functional assay
T2 sequence (P30542 1-326): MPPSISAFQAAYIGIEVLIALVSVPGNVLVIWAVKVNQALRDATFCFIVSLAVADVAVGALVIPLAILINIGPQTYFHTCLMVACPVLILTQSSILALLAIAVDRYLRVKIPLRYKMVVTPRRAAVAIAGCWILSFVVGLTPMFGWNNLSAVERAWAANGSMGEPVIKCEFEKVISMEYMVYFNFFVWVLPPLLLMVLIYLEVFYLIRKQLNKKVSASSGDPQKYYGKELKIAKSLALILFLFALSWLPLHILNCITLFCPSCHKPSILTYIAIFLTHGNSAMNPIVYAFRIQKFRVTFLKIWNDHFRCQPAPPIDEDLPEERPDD

CN1CCN(C(=O)c2ccc3c(c2)-c2nc(N)nc(-c4ccccc4)c2C3=O)CC1 [Compound A, 2-Amino-8-(4-methyl-piperazine-1-carbonyl)-4-phenyl-indeno[1,2-d]pyrimidin-5-one]
Ki [1]: 8.2 nM
Ki (A1): 58.4 nM
